Data from patent publication US5310675A, “Procaryotic carbonyl hydrolases” (priority 1991, dated 1994).
*1 amine or outer side, *2 acyl side, *3 side chain or, on linkers, in order; H or OH if unused. Where a SMILES comes first, the peptide text is derived from it. The star is where a group is joined. pNA = O=[N+]([O-])c1ccc(N*)cc1; Suc = O=C(CCC(=O)[*:2])[*:1]; Bz = O=C(c1ccccc1)*

Legend:
Test in all cases: Kinetic parameters from progress curves, p-nitroanilide substrates
Format in all cases: biochemical
Conditions in all cases: 25° C., 0.1M tris buffer, pH 8.6
[1] = molecular target: T1, B. amyloliquefaciens subtilisin variant asn+166 (glycine+166 to asn) (Bacillus amyloliquefaciens, UniProt P00782, G273N)
T1 construct: codons for the mature subtilisin corresponding to that secreted by the B. amyloliquefaciens; made in house; host or cells: B. subtilis BG2036
Method: (§1) B. subtilis strain BG2036 obtained by the method of Example 11 was transformed by the plasmids of Examples 14, 15 or 20 and by pS4-5 as a control. Transformants were plated or cultured in shaker flasks for 16 to 48 h at 37° C. in LB media plus 12.5 μg/ml chloramphenicol. Mutant enzymatically active subtilisin was recovered by dialyzing cell broth against 0.01M sodium phosphate buffer, pH 6.2. The dialyzed broth was then titrated to pH 6.2 with 1N HCl and loaded on a 2.5×2 cm column of CM Cellulose (CM-52 Whatman). After washing with 0.01M sodium phosphate, pH 6.2, the subtilisins (except mutants at position +222) were eluted with the same buffer made 0.08N in NaCl. The mutant subtilisins at position +222 were each eluted with 0.1M sodium phosphate, pH 7.0. The purified mutant and wild type enzymes were then used in studies of oxidation stability, Km, Kcat, Kcat/Km ratio, pH optimum, and changes in substrate specificity.
(§2) Various mutants for glycine+166 were screened for modified Kcat, Km and Kcat/Km ratios. Kinetic parameters were obtained by analysis of the progress curves of the reactions. The rate of reaction was measured as a function of substrate concentration. Data was analyzed by fitting to the Michaelis-Menton equation using the non-linear regression algorithm of Marquardt (Marquardt, D. W. 1963, "J. Soc. Ind. Appl. Math." 11, 431-41).

[2] = molecular target: T2, B. amyloliquefaciens subtilisin variant asp+166 (D166; glycine+166 to asp) (Bacillus amyloliquefaciens, UniProt P00782, G273D)
T2 construct: codons for the mature subtilisin corresponding to that secreted by the B. amyloliquefaciens; made in house; host or cells: B. subtilis BG2036
Method: as §1, §2

[3] = molecular target: T3, B. amyloliquefaciens subtilisin variant glu+166 (E166; glycine+166 to glu) (Bacillus amyloliquefaciens, UniProt P00782, G273E)
T3 construct: codons for the mature subtilisin corresponding to that secreted by the B. amyloliquefaciens; made in house; host or cells: B. subtilis BG2036
Method: as §1, §2

[4] = molecular target: T4, B. amyloliquefaciens subtilisin, wild type (gly-166) (Bacillus amyloliquefaciens, UniProt P00782)
T4 construct: codons for the mature subtilisin corresponding to that secreted by the B. amyloliquefaciens; made in house; host or cells: B. subtilis BG2036 (transformed with pS4-5)
Method: as §1, §2

[5] = molecular target: T5, B. amyloliquefaciens subtilisin variant ala+166 (A166; glycine+166 to ala) (Bacillus amyloliquefaciens, UniProt P00782, G273A)
T5 construct: codons for the mature subtilisin corresponding to that secreted by the B. amyloliquefaciens; made in house; host or cells: B. subtilis BG2036
Method: as §1, §2

[6] = molecular target: T6, B. amyloliquefaciens subtilisin variant arg+166 (glycine+166 to arg) (Bacillus amyloliquefaciens, UniProt P00782, G273R)
T6 construct: codons for the mature subtilisin corresponding to that secreted by the B. amyloliquefaciens; made in house; host or cells: B. subtilis BG2036
Method: as §1, §2

[7] = molecular target: T7, B. amyloliquefaciens subtilisin variant hys+166 (glycine+166 to his) (Bacillus amyloliquefaciens, UniProt P00782, G273H)
T7 construct: codons for the mature subtilisin corresponding to that secreted by the B. amyloliquefaciens; made in house; host or cells: B. subtilis BG2036
Method: as §1, §2

[8] = molecular target: T8, B. amyloliquefaciens subtilisin variant lys+166 (glycine+166 to lys) (Bacillus amyloliquefaciens, UniProt P00782, G273K)
T8 construct: codons for the mature subtilisin corresponding to that secreted by the B. amyloliquefaciens; made in house; host or cells: B. subtilis BG2036
Method: as §1, §2

[9] = molecular target: T9, B. amyloliquefaciens subtilisin variant phe+166 (glycine+166 to phe) (Bacillus amyloliquefaciens, UniProt P00782, G273F)
T9 construct: codons for the mature subtilisin corresponding to that secreted by the B. amyloliquefaciens; made in house; host or cells: B. subtilis BG2036
Method: as §1, §2

T3 sequence (P00782 108-382 G273E): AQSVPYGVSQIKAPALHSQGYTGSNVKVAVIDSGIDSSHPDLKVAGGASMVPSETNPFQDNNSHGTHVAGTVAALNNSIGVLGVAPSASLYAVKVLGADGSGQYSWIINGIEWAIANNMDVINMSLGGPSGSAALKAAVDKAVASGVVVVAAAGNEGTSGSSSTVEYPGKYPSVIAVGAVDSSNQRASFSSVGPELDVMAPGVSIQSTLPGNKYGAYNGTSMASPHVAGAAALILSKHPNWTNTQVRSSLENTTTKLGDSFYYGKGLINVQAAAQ
T2 sequence (P00782 108-382 G273D): as the sequence (P00782 108-382 G273E) above, with E166D counted along it
T9 sequence (P00782 108-382 G273F): as the sequence (P00782 108-382 G273E) above, with E166F counted along it
T1 sequence (P00782 108-382 G273N): as the sequence (P00782 108-382 G273E) above, with E166N counted along it
T4 sequence (P00782 108-382): as the sequence (P00782 108-382 G273E) above, with E166G counted along it
T6 sequence (P00782 108-382 G273R): as the sequence (P00782 108-382 G273E) above, with E166R counted along it
T5 sequence (P00782 108-382 G273A): as the sequence (P00782 108-382 G273E) above, with E166A counted along it
T8 sequence (P00782 108-382 G273K): as the sequence (P00782 108-382 G273E) above, with E166K counted along it
T7 sequence (P00782 108-382 G273H): as the sequence (P00782 108-382 G273E) above, with E166H counted along it

| Compound | Km [1] [µM] | Kcat [2] [s⁻¹] | Km [2] [µM] | Kcat [3] [s⁻¹] | Km [3] [µM] | Km [4] [µM] | Km [5] [µM] | Km [6] [µM] | Km [7] [µM] | Km [8] [µM] | Kcat [9] [s⁻¹] | Km [9] [µM] |
| --- | --- | --- | --- | --- | --- | --- | --- | --- | --- | --- | --- | --- |
| CC(C)[C@H](NC(=O)c1ccccc1)C(=O)NCC(=O)N[C@@H](CCCNC(=N)N)C(=O)Nc1ccc([N+](=O)[O-])cc1 [BVGRpN, benzoyl-L-Valyl-Glycyl-L-Arginyl-p-nitroanilide] (Bz-Val-Gly-Arg-pNA) | 120 | 2 | 41 | 2 | 27 | 1100 | – | – | – | – | – | – |
| C[C@H](NC(=O)CCC(=O)O)C(=O)N[C@@H](C)C(=O)N1CCC[C@H]1C(=O)N[C@@H](Cc1ccccc1)C(=O)Nc1ccc([N+](=O)[O-])cc1 [sAAPFpN, succinyl-L-Alanyl-L-Alanyl-L-Prolyl-L-Phenylalanyl-p-nitro-anilide] (Suc-AAPF-pNA) | 140 | – | 580 | – | 340 | 140 | 27 | 62 | 110 | 34 | 3 | 14 |
